Measurements from US6355799B1, “Substituted benzene compounds, process for their preparation, and herbicidal and defoliant compositions containing them” (ISK Americas Incorporated, priority 1997, dated 2002).

Experiments:
Format in all cases: in vivo
[1] = tested on: ivyleaf morningglory (Ipomoea hederacea, IPOHE); assay: Pre-emerge test, greenhouse herbicide activity screening; conditions: for Pre-emerge Herbicidal Activity IPOHE (phytotoxicity rating, scale 0-100): rated 14 days after application, 0 = no damage, 100 = complete death
How it was run: (§1)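 Applied at 15–1000 g ai/ha from acetone in 187 l/ha spray volume. Post-emergence applications included 0.25% v/v non-ionic surfactant and reached plants sown 8–21 days before. Pre-emergence applications were incorporated by surface watering. Efficacy or crop damage was rated on a 0–100 scale after 14 days.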

[2] = tested on: large crabgrass (Digitaria sanguinalis, DIGSA); assay: as above; conditions: for Pre-emerge Herbicidal Activity DIGSA (phytotoxicity rating, scale 0-100): rated 14 days after application, 0 = no damage, 100 = complete death
How it was run: as §1

[3] = tested on: velvetleaf (Abutilon theophrasti, ABUTH); assay: as above; conditions: for Pre-emerge Herbicidal Activity ABUTH (phytotoxicity rating, scale 0-100): rated 14 days after application, 0 = no damage, 100 = complete death
How it was run: as §1

[4] = tested on: johnsongrass (Sorghum halepense, SORHA); assay: as above; conditions: for Pre-emerge Herbicidal Activity SORHA (phytotoxicity rating, scale 0-100): rated 14 days after application, 0 = no damage, 100 = complete death
How it was run: as §1

[5] = tested on: barnyardgrass (Echinochloa crus-galli, ECHCG); assay: as above; conditions: for Pre-emerge Herbicidal Activity ECHCG (phytotoxicity rating, scale 0-100): rated 14 days after application, 0 = no damage, 100 = complete death
How it was run: as §1

[6] = tested on: lambsquarters (Chenopodium album, CHEAL); assay: as above; conditions: for Pre-emerge Herbicidal Activity CHEAL (phytotoxicity rating, scale 0-100): rated 14 days after application, 0 = no damage, 100 = complete death
How it was run: as §1

[7] = tested on: green foxtail (Setaria viridis, SETVI); assay: as above; conditions: for Pre-emerge Herbicidal Activity SETVI (phytotoxicity rating, scale 0-100): rated 14 days after application, 0 = no damage, 100 = complete death
How it was run: as §1

[8] = tested on: sicklepod (Cassia obtusifolia, CASOB); assay: as above; conditions: for Pre-emerge Herbicidal Activity CASOB (phytotoxicity rating, scale 0-100): rated 14 days after application, 0 = no damage, 100 = complete death
How it was run: as §1

[9] = tested on: large crabgrass (Digitaria sanguinalis, DIGSA); assay: Post-emerge test, greenhouse herbicide activity screening; conditions: 14 days after application; for phytotoxicity rating DIGSA: post-emerge, rating scale 0-100
How it was run: (§2)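 Compounds in acetone were track-sprayed at 15-1000 g ai/ha (187 l/ha) on sandy loam pots: pre-emerge one day after seeding, post-emerge at 2-3 leaf stage with 0.25% v/v non-ionic surfactant. Phytotoxicity was rated 14 days later on a 0 (no damage) to 100 (complete death) scale.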

[10] = tested on: johnsongrass (Sorghum halepense, SORHA); assay: as above; conditions: 14 days after application; for phytotoxicity rating SORHA: post-emerge, rating scale 0-100
How it was run: as §2

[11] = tested on: lambsquarters (Chenopodium album, CHEAL); assay: as above; conditions: 14 days after application; for phytotoxicity rating CHEAL: post-emerge, rating scale 0-100
How it was run: as §2

[12] = tested on: green foxtail (Setaria viridis, SETVI); assay: as above; conditions: 14 days after application; for phytotoxicity rating SETVI: post-emerge, rating scale 0-100
How it was run: as §2

[13] = tested on: sicklepod (Cassia obtusifolia, CASOB); assay: as above; conditions: 14 days after application; for phytotoxicity rating CASOB: post-emerge, rating scale 0-100
How it was run: as §2

[14] = tested on: redroot pigweed (Amaranthus retroflexus, AMARE); assay: Pre-emerge test, greenhouse herbicide activity screening; conditions: for Pre-emerge Herbicidal Activity AMARE (phytotoxicity rating, scale 0-100): rated 14 days after application, 0 = no damage, 100 = complete death
How it was run: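 Herbicidal damage is scored 0 (none) to 100 (complete plant death) two weeks after a simulated field spray. Rates span 15–1000 g ai/ha, delivered in acetone at 187 l/ha. For post-emergence treatments, plants have 2–3 leaves and the spray carries 0.25% v/v non-ionic surfactant.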

`CNC(=O)N(C(=O)NC)c1c(OC)c(Cl)cc(F)c1-n1c(=O)cc(C(F)(F)F)n(C)c1=O` [Compound 3-1, 3-[2-bis(methylaminocarbonyl)amino-4-chloro-6-fluoro-3-methoxyphenyl]-1-methyl-6-trifluoromethyl-2,4(1H, 3H)-pyrimidinedione] gave a pest or weed control at 63 g/ha ([1]; Ipomoea, pre-emergence, 336 h, 63 g ai/ha, phytotoxicity rating 0-100, 14 days after application, read-out: Pre-emerge Herbicidal Activity IPOHE) of 0%, a pest or weed control at 250 g/ha ([1]; Ipomoea, pre-emergence, 336 h, 250 g ai/ha, phytotoxicity rating 0-100, 14 days after application, read-out: Pre-emerge Herbicidal Activity IPOHE) of 0% and a pest or weed control at 63 g/ha ([2]; Digitaria sanguinalis, pre-emergence, 336 h, 63 g ai/ha, phytotoxicity rating 0-100, 14 days after application, read-out: Pre-emerge Herbicidal Activity DIGSA) of 0%. For the same molecule, the pest or weed control at 250 g/ha ([2]; Digitaria sanguinalis, pre-emergence, 336 h, 250 g ai/ha, phytotoxicity rating 0-100, 14 days after application, read-out: Pre-emerge Herbicidal Activity DIGSA) was 0%, the pest or weed control at 63 g/ha ([3]; Abutilon theophrasti, pre-emergence, 336 h, 63 g ai/ha, phytotoxicity rating 0-100, 14 days after application, read-out: Pre-emerge Herbicidal Activity ABUTH) was 0% and the pest or weed control at 250 g/ha ([3]; Abutilon theophrasti, pre-emergence, 336 h, 250 g ai/ha, phytotoxicity rating 0-100, 14 days after application, read-out: Pre-emerge Herbicidal Activity ABUTH) was 20%. It also gave a pest or weed control at 63 g/ha ([4]; Sorghum halepense, pre-emergence, 336 h, 63 g ai/ha, phytotoxicity rating 0-100, 14 days after application, read-out: Pre-emerge Herbicidal Activity SORHA) of 0%, a pest or weed control at 250 g/ha ([4]; Sorghum halepense, pre-emergence, 336 h, 250 g ai/ha, phytotoxicity rating 0-100, 14 days after application, read-out: Pre-emerge Herbicidal Activity SORHA) of 0% and a pest or weed control at 63 g/ha ([5]; Echinochloa crus-galli, pre-emergence, 336 h, 63 g ai/ha, phytotoxicity rating 0-100, 14 days after application, read-out: Pre-emerge Herbicidal Activity ECHCG) of 0%. For the same molecule, the pest or weed control at 250 g/ha ([5]; Echinochloa crus-galli, pre-emergence, 336 h, 250 g ai/ha, phytotoxicity rating 0-100, 14 days after application, read-out: Pre-emerge Herbicidal Activity ECHCG) was 0%, the pest or weed control at 63 g/ha ([6]; Chenopodium album, pre-emergence, 336 h, 63 g ai/ha, phytotoxicity rating 0-100, 14 days after application, read-out: Pre-emerge Herbicidal Activity CHEAL) was 20% and the pest or weed control at 250 g/ha ([6]; Chenopodium album, pre-emergence, 336 h, 250 g ai/ha, phytotoxicity rating 0-100, 14 days after application, read-out: Pre-emerge Herbicidal Activity CHEAL) was 80%. It also gave a pest or weed control at 63 g/ha ([7]; Setaria viridis, pre-emergence, 336 h, 63 g ai/ha, phytotoxicity rating 0-100, 14 days after application, read-out: Pre-emerge Herbicidal Activity SETVI) of 0%, a pest or weed control at 250 g/ha ([7]; Setaria viridis, pre-emergence, 336 h, 250 g ai/ha, phytotoxicity rating 0-100, 14 days after application, read-out: Pre-emerge Herbicidal Activity SETVI) of 0% and a pest or weed control at 63 g/ha ([8]; Senna obtusifolia, pre-emergence, 336 h, 63 g ai/ha, phytotoxicity rating 0-100, 14 days after application, read-out: Pre-emerge Herbicidal Activity CASOB) of 0%. For the same molecule, the pest or weed control at 250 g/ha ([8]; Senna obtusifolia, pre-emergence, 336 h, 250 g ai/ha, phytotoxicity rating 0-100, 14 days after application, read-out: Pre-emerge Herbicidal Activity CASOB) was 0%, the “phytotoxicity rating DIGSA” value ([9]; 63 g ai/ha) was 0 and the “phytotoxicity rating DIGSA” value ([9]; 250 g ai/ha) was 0. For the same molecule, the “phytotoxicity rating SORHA” value ([10]; 63 g ai/ha) was 0, the “phytotoxicity rating SORHA” value ([10]; 250 g ai/ha) was 0 and the “phytotoxicity rating CHEAL” value ([11]; 63 g ai/ha) was 0. The “phytotoxicity rating CHEAL” value ([11]; 250 g ai/ha) was 60, the “phytotoxicity rating SETVI” value ([12]; 63 g ai/ha) was 0 and the “phytotoxicity rating SETVI” value ([12]; 250 g ai/ha) was 0. For the same molecule, the “phytotoxicity rating CASOB” value ([13]; 63 g ai/ha) was 0, the “phytotoxicity rating CASOB” value ([13]; 250 g ai/ha) was 0 and the pest or weed control at 63 g/ha ([14]; Amaranthus retroflexus, pre-emergence, 336 h, 63 g ai/ha, phytotoxicity rating 0-100, 14 days after application, read-out: Pre-emerge Herbicidal Activity AMARE) was 0%. For the same molecule, the pest or weed control at 250 g/ha ([14]; Amaranthus retroflexus, pre-emergence, 336 h, 250 g ai/ha, phytotoxicity rating 0-100, 14 days after application, read-out: Pre-emerge Herbicidal Activity AMARE) was 30%.

For `COc1c(Cl)cc(F)c(-n2c(=O)cc(C(F)(F)F)n(C)c2=O)c1[N+](=O)[O-]` [Compound 1-5, 3-(4-chloro-6-fluoro-3-methoxy-2-nitrophenyl)-1-methyl-6-trifluoromethyl-2,4(1H, 3H)-pyrimidinedione], the “Pre-emerge Herbicidal Activity IPOHE (phytotoxicity rating, scale 0-100)” value ([1]; 63 g ai/ha) was 0, the “Pre-emerge Herbicidal Activity IPOHE (phytotoxicity rating, scale 0-100)” value ([1]; 250 g ai/ha) was 10 and the “Pre-emerge Herbicidal Activity DIGSA (phytotoxicity rating, scale 0-100)” value ([2]; 63 g ai/ha) was 0. For the same molecule, the “Pre-emerge Herbicidal Activity DIGSA (phytotoxicity rating, scale 0-100)” value ([2]; 250 g ai/ha) was 70, the “Pre-emerge Herbicidal Activity ABUTH (phytotoxicity rating, scale 0-100)” value ([3]; 63 g ai/ha) was 30 and the “Pre-emerge Herbicidal Activity ABUTH (phytotoxicity rating, scale 0-100)” value ([3]; 250 g ai/ha) was 100. For the same molecule, the “Pre-emerge Herbicidal Activity SORHA (phytotoxicity rating, scale 0-100)” value ([4]; 63 g ai/ha) was 0, the “Pre-emerge Herbicidal Activity SORHA (phytotoxicity rating, scale 0-100)” value ([4]; 250 g ai/ha) was 20 and the “Pre-emerge Herbicidal Activity ECHCG (phytotoxicity rating, scale 0-100)” value ([5]; 63 g ai/ha) was 0. The “Pre-emerge Herbicidal Activity ECHCG (phytotoxicity rating, scale 0-100)” value ([5]; 250 g ai/ha) was 0, the “Pre-emerge Herbicidal Activity CHEAL (phytotoxicity rating, scale 0-100)” value ([6]; 63 g ai/ha) was 60 and the “Pre-emerge Herbicidal Activity CHEAL (phytotoxicity rating, scale 0-100)” value ([6]; 250 g ai/ha) was 100. For the same molecule, the “Pre-emerge Herbicidal Activity SETVI (phytotoxicity rating, scale 0-100)” value ([7]; 63 g ai/ha) was 0, the “Pre-emerge Herbicidal Activity SETVI (phytotoxicity rating, scale 0-100)” value ([7]; 250 g ai/ha) was 90 and the “Pre-emerge Herbicidal Activity CASOB (phytotoxicity rating, scale 0-100)” value ([8]; 63 g ai/ha) was 0. For the same molecule, the “Pre-emerge Herbicidal Activity CASOB (phytotoxicity rating, scale 0-100)” value ([8]; 250 g ai/ha) was 0, the pest or weed control at 63 g/ha ([9]; Digitaria sanguinalis, post-emergence, 336 h, 63 g ai/ha, phytotoxicity rating 0-100 (0 no damage, 100 complete death), read-out: Post-emerge Herbicidal Activity DIGSA) was 0% and the pest or weed control at 250 g/ha ([9]; Digitaria sanguinalis, post-emergence, 336 h, 250 g ai/ha, phytotoxicity rating 0-100 (0 no damage, 100 complete death), read-out: Post-emerge Herbicidal Activity DIGSA) was 0%. For the same molecule, the pest or weed control at 63 g/ha ([10]; Sorghum halepense, post-emergence, 336 h, 63 g ai/ha, phytotoxicity rating 0-100 (0 no damage, 100 complete death), read-out: Post-emerge Herbicidal Activity SORHA) was 0%, the pest or weed control at 250 g/ha ([10]; Sorghum halepense, post-emergence, 336 h, 250 g ai/ha, phytotoxicity rating 0-100 (0 no damage, 100 complete death), read-out: Post-emerge Herbicidal Activity SORHA) was 0% and the pest or weed control at 63 g/ha ([11]; Chenopodium album, post-emergence, 336 h, 63 g ai/ha, phytotoxicity rating 0-100 (0 no damage, 100 complete death), read-out: Post-emerge Herbicidal Activity CHEAL) was 0%. The pest or weed control at 250 g/ha ([11]; Chenopodium album, post-emergence, 336 h, 250 g ai/ha, phytotoxicity rating 0-100 (0 no damage, 100 complete death), read-out: Post-emerge Herbicidal Activity CHEAL) was 50%, the pest or weed control at 63 g/ha ([12]; Setaria viridis, post-emergence, 336 h, 63 g ai/ha, phytotoxicity rating 0-100 (0 no damage, 100 complete death), read-out: Post-emerge Herbicidal Activity SETVI) was 0% and the pest or weed control at 250 g/ha ([12]; Setaria viridis, post-emergence, 336 h, 250 g ai/ha, phytotoxicity rating 0-100 (0 no damage, 100 complete death), read-out: Post-emerge Herbicidal Activity SETVI) was 0%. The pest or weed control at 63 g/ha ([13]; Senna obtusifolia, post-emergence, 336 h, 63 g ai/ha, phytotoxicity rating 0-100 (0 no damage, 100 complete death), read-out: Post-emerge Herbicidal Activity CASOB) was 0%, the pest or weed control at 250 g/ha ([13]; Senna obtusifolia, post-emergence, 336 h, 250 g ai/ha, phytotoxicity rating 0-100 (0 no damage, 100 complete death), read-out: Post-emerge Herbicidal Activity CASOB) was 30% and the “Pre-emerge Herbicidal Activity AMARE (phytotoxicity rating, scale 0-100)” value ([14]; 63 g ai/ha) was 20. The “Pre-emerge Herbicidal Activity AMARE (phytotoxicity rating, scale 0-100)” value ([14]; 250 g ai/ha) was 95.
